Results reported in ChEMBL document CHEMBL3046559, “Sterile oat (Avena sterilis L.) cross-resistance profile to ACCase-inhibiting herbicides in Greece” (2012).

Experiments:
Assay type in all cases: functional
Avena sterilis [1] = experiment: Herbicidal activity against Avena sterilis accession P01 assessed as weed survival at 4 times field recommended herbicide dose
Avena sterilis [2] = experiment: Herbicidal activity against Avena sterilis accession P14 assessed as weed survival at 8 times field recommended herbicide dose
Avena sterilis [3] = experiment: Herbicidal activity against Avena sterilis accession P05 assessed as weed survival at 32 times field recommended herbicide dose
Avena sterilis [4] = experiment: Herbicidal activity against Avena sterilis accession P22 assessed as weed survival at 16 times field recommended herbicide dose
Avena sterilis [5] = experiment: Herbicidal activity against Avena sterilis accession P18 assessed as weed survival at 1 times field recommended herbicide dose
Avena sterilis [6] = experiment: Herbicidal activity against Avena sterilis accession P21S assessed as weed survival at 1/16 times field recommended herbicide dose
Avena sterilis [7] = experiment: Herbicidal activity against Avena sterilis accession P07 assessed as weed survival at 1 times field recommended herbicide dose
Avena sterilis [8] = experiment: Herbicidal activity against Avena sterilis accession P22 assessed as weed survival at 8 times field recommended herbicide dose
Avena sterilis [9] = experiment: Herbicidal activity against Avena sterilis accession P22 assessed as weed survival at 32 times field recommended herbicide dose
Avena sterilis [10] = experiment: Herbicidal activity against Avena sterilis accession P05 assessed as induction of weed mortality
Avena sterilis [11] = experiment: Herbicidal activity against Avena sterilis accession P07 assessed as induction of weed mortality
Avena sterilis [12] = experiment: Herbicidal activity against Avena sterilis accession P07 assessed as weed survival at 16 times field recommended herbicide dose
Avena sterilis [13] = experiment: Herbicidal activity against Avena sterilis accession P13S assessed as weed survival at 1/4 times field recommended herbicide dose
Avena sterilis [14] = experiment: Herbicidal activity against Avena sterilis accession P21S assessed as induction of weed mortality
Avena sterilis [15] = experiment: Herbicidal activity against Avena sterilis accession P13S assessed as induction of weed mortality
Avena sterilis [16] = experiment: Herbicidal activity against Avena sterilis accession P11 assessed as weed survival at 8 times field recommended herbicide dose
Avena sterilis [17] = experiment: Herbicidal activity against Avena sterilis accession P05 assessed as weed survival at 8 times field recommended herbicide dose
Avena sterilis [18] = experiment: Herbicidal activity against Avena sterilis accession P04 assessed as weed survival at 16 times field recommended herbicide dose
Avena sterilis [19] = experiment: Herbicidal activity against Avena sterilis accession P12 assessed as weed survival at 8 times field recommended herbicide dose
Avena sterilis [20] = experiment: Herbicidal activity against Avena sterilis accession P04 assessed as weed survival at 4 times field recommended herbicide dose
Avena sterilis [21] = experiment: Herbicidal activity against Avena sterilis accession P11 assessed as weed survival at 16 times field recommended herbicide dose
Avena sterilis [22] = experiment: Herbicidal activity against Avena sterilis accession P10S assessed as weed survival at 1/4 times field recommended herbicide dose
Avena sterilis [23] = experiment: Herbicidal activity against Avena sterilis accession P14 assessed as induction of weed mortality
Avena sterilis [24] = experiment: Herbicidal activity against Avena sterilis accession P16 assessed as weed survival at 1 times field recommended herbicide dose
Avena sterilis [25] = experiment: Herbicidal activity against Avena sterilis accession P06S assessed as weed survival at 1/8 times field recommended herbicide dose
Avena sterilis [26] = experiment: Herbicidal activity against Avena sterilis accession P16 assessed as weed survival at 4 times field recommended herbicide dose
Avena sterilis [27] = experiment: Herbicidal activity against Avena sterilis accession P10S assessed as induction of weed mortality
Avena sterilis [28] = experiment: Herbicidal activity against Avena sterilis accession P17 assessed as weed survival at 16 times field recommended herbicide dose
Avena sterilis [29] = experiment: Herbicidal activity against Avena sterilis accession P01 assessed as weed survival at 32 times field recommended herbicide dose
Avena sterilis [30] = experiment: Herbicidal activity against Avena sterilis accession P08 assessed as weed survival at 8 times field recommended herbicide dose
Avena sterilis [31] = experiment: Herbicidal activity against Avena sterilis accession P02 assessed as weed survival at 8 times field recommended herbicide dose
Avena sterilis [32] = experiment: Herbicidal activity against Avena sterilis accession P21S assessed as weed survival at 1/8 times field recommended herbicide dose
Avena sterilis [33] = experiment: Herbicidal activity against Avena sterilis accession P16 assessed as induction of weed mortality
Avena sterilis [34] = experiment: Herbicidal activity against Avena sterilis accession P06S assessed as induction of weed mortality
Avena sterilis [35] = experiment: Herbicidal activity against Avena sterilis accession P19S assessed as weed survival at 1/8 times field recommended herbicide dose
Avena sterilis [36] = experiment: Herbicidal activity against Avena sterilis accession P05 assessed as weed survival at 16 times field recommended herbicide dose
Avena sterilis [37] = experiment: Herbicidal activity against Avena sterilis accession P09 assessed as induction of weed mortality
Avena sterilis [38] = experiment: Herbicidal activity against Avena sterilis accession P17 assessed as weed survival at 8 times field recommended herbicide dose
Avena sterilis [39] = experiment: Herbicidal activity against Avena sterilis accession P22 assessed as weed survival at 4 times field recommended herbicide dose
Avena sterilis [40] = experiment: Herbicidal activity against Avena sterilis accession P21S assessed as weed survival at 1/4 times field recommended herbicide dose
Avena sterilis [41] = experiment: Herbicidal activity against Avena sterilis accession P11 assessed as weed survival at 32 times field recommended herbicide dose
Avena sterilis [42] = experiment: Herbicidal activity against Avena sterilis accession P11 assessed as induction of weed mortality
Avena sterilis [43] = experiment: Herbicidal activity against Avena sterilis accession P10S assessed as weed survival at 1 times field recommended herbicide dose
Avena sterilis [44] = experiment: Herbicidal activity against Avena sterilis accession P11 assessed as weed survival at 1 times field recommended herbicide dose
Avena sterilis [45] = experiment: Herbicidal activity against Avena sterilis accession P01 assessed as induction of weed mortality
Avena sterilis [46] = experiment: Herbicidal activity against Avena sterilis accession P16 assessed as weed survival at 8 times field recommended herbicide dose
Avena sterilis [47] = experiment: Herbicidal activity against Avena sterilis accession P03 assessed as weed survival at 8 times field recommended herbicide dose
Avena sterilis [48] = experiment: Herbicidal activity against Avena sterilis accession P02 assessed as weed survival at 32 times field recommended herbicide dose
Avena sterilis [49] = experiment: Herbicidal activity against Avena sterilis accession P12 assessed as induction of weed mortality
Avena sterilis [50] = experiment: Herbicidal activity against Avena sterilis accession P15 assessed as weed survival at 1 times field recommended herbicide dose
Avena sterilis [51] = experiment: Herbicidal activity against Avena sterilis accession P04 assessed as induction of weed mortality
Avena sterilis [52] = experiment: Herbicidal activity against Avena sterilis accession P07 assessed as weed survival at 32 times field recommended herbicide dose
Avena sterilis [53] = experiment: Herbicidal activity against Avena sterilis accession P18 assessed as induction of weed mortality
Avena sterilis [54] = experiment: Herbicidal activity against Avena sterilis accession P18 assessed as weed survival at 16 times field recommended herbicide dose
Avena sterilis [55] = experiment: Herbicidal activity against Avena sterilis accession P22 assessed as weed survival at 1 times field recommended herbicide dose
Avena sterilis [56] = experiment: Herbicidal activity against Avena sterilis accession P06S assessed as weed survival at 1/32 times field recommended herbicide dose
Avena sterilis [57] = experiment: Herbicidal activity against Avena sterilis accession P07 assessed as weed survival at 4 times field recommended herbicide dose
Avena sterilis [58] = experiment: Herbicidal activity against Avena sterilis accession P05 assessed as weed survival at 1 times field recommended herbicide dose
Avena sterilis [59] = experiment: Herbicidal activity against Avena sterilis accession P12 assessed as weed survival at 1 times field recommended herbicide dose

COC(=O)C(C)Oc1ccc(Oc2ccc(Cl)cc2Cl)cc1 (centres undefined) [DICLOFOP-METHYL]
Survival (Avena sterilis [1]): 87%
Survival (Avena sterilis [2]): 60%
Survival (Avena sterilis [3]): 20%
Survival (Avena sterilis [4]): 27%
Survival (Avena sterilis [5]): 100%
Survival (Avena sterilis [6]): 97%
Survival (Avena sterilis [7]): 100%
Survival (Avena sterilis [8]): 40%
Survival (Avena sterilis [9]): 20%
GR50 (Avena sterilis [10]): 4859 gAi/ha
GR50 (Avena sterilis [11]): 3737 gAi/ha
Survival (Avena sterilis [12]): 20%
Survival (Avena sterilis [13]): 80%
GR50 (Avena sterilis [14]): 418 gAi/ha
GR50 (Avena sterilis [15]): 509 gAi/ha
Survival (Avena sterilis [16]): 73%
Survival (Avena sterilis [17]): 40%
Survival (Avena sterilis [18]): 53%
Survival (Avena sterilis [19]): 80%
Survival (Avena sterilis [20]): 97%
Survival (Avena sterilis [21]): 70%
Survival (Avena sterilis [22]): 90%
GR50 (Avena sterilis [23]): 11045 gAi/ha
Survival (Avena sterilis [24]): 80%
Survival (Avena sterilis [25]): 90%
Survival (Avena sterilis [26]): 60%
GR50 (Avena sterilis [27]): 506 gAi/ha
Survival (Avena sterilis [28]): 43%
Survival (Avena sterilis [29]): 50%
Survival (Avena sterilis [30]): 60%
Survival (Avena sterilis [31]): 80%
Survival (Avena sterilis [32]): 97%
GR50 (Avena sterilis [33]): 5442 gAi/ha
GR50 (Avena sterilis [34]): 548 gAi/ha
Survival (Avena sterilis [35]): 100%
Survival (Avena sterilis [36]): 20%
GR50 (Avena sterilis [37]): 14176 gAi/ha
Survival (Avena sterilis [38]): 60%
Survival (Avena sterilis [39]): 63%
Survival (Avena sterilis [40]): 83%
Survival (Avena sterilis [41]): 63%
GR50 (Avena sterilis [42]): >22740 gAi/ha
Survival (Avena sterilis [43]): 33%
Survival (Avena sterilis [44]): 100%
GR50 (Avena sterilis [45]): 21999 gAi/ha
Survival (Avena sterilis [46]): 53%
Survival (Avena sterilis [47]): 60%
Survival (Avena sterilis [48]): 53%
GR50 (Avena sterilis [49]): >22740 gAi/ha
Survival (Avena sterilis [50]): 100%
GR50 (Avena sterilis [51]): 14196 gAi/ha
Survival (Avena sterilis [52]): 20%
GR50 (Avena sterilis [53]): 10199 gAi/ha
Survival (Avena sterilis [54]): 40%
Survival (Avena sterilis [55]): 97%
Survival (Avena sterilis [56]): 100%
Survival (Avena sterilis [57]): 60%
Survival (Avena sterilis [58]): 100%
Survival (Avena sterilis [59]): 80%
